Earlier results on 1 molecule are cited in patent US20220064092A1, “METHYLATION PROCESS” (priority 2019, published 2022).

For the data set the following is noted: qualitative statement.

On to `Oc1ccc(/C=C/c2cc(O)cc(O)c2)cc1` [resveratrol, 3,5,4′-trihydroxy-trans-stilbene], for which the half-life result was “very limited half-life”.
